Measurements as given in patent US7189720B2 (H. Lundbeck A/S, priority 1999, dated 2007).
Where two headings read alike, the source gives them in different places. Blank lines part the entries; values can stand above or below the compound they belong to.

Key:
human Y5 receptor = molecular target: T1, human Y5 receptor (Homo sapiens, UniProt Q15761); assay: Radioligand binding to membranes, cloned human Y5 receptor
T1 construct: expressed in transfected cells; host or cells: mouse fibroblast LM(tk-) cells, e.g. L-hY5-7 (ATCC CRL-11995)
T1 sequence (Q15761 1-445): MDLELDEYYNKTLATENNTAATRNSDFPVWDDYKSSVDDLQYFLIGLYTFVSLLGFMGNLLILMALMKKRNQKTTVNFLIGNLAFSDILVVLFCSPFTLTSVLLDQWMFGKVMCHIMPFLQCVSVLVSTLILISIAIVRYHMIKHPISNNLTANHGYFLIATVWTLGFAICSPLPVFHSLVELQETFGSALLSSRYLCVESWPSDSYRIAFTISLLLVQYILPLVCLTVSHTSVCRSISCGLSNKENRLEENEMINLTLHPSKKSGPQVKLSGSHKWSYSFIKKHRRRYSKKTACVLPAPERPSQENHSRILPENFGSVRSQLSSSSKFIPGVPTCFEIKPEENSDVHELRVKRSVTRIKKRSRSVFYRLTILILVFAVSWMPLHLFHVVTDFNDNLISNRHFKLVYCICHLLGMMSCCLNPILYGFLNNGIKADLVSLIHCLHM

human Y1 receptor = molecular target: T2, human Y1 receptor (Homo sapiens, UniProt P25929); assay: Radioligand binding to membranes, cloned human Y1 receptor; settings: hNPY-1 (one cell for Y1, Y2, Y4), read-out: Ki, nM hNPY-1,2,4
T2 construct: expressed in transfected cells; host or cells: human embryonic kidney 293 cells, e.g. 293-hY1-5 (ATCC CRL-12121)
T2 sequence (P25929 1-384): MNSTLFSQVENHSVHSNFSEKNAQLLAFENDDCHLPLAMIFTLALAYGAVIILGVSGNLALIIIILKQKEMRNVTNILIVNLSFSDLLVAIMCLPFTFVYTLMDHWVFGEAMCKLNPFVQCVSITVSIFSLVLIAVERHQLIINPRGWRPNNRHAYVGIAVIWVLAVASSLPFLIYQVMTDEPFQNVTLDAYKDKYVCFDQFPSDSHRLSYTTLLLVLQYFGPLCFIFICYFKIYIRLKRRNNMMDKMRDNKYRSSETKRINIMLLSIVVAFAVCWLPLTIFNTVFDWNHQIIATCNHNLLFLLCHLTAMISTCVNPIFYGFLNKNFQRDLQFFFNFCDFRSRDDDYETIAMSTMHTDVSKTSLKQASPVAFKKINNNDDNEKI
Protocol: (§1) Binding of the compounds of the present invention to human Y1, Y2, Y4, and Y5 receptors was evaluated using stably transfected 293 or LM(tk-) cells as described above.
(§2) Membranes were harvested from COS-7 cells 48 hours after transient transfection. Adherent cells were washed twice in ice-cold phosphate buffered saline (138 mM NaCl, 8.1 mM Na2HPO4, 2.5 mM KCl, 1.2 mM KH2PO4, 0.9 mM CaCl2, 0.5 mM MgCl2, pH 7.4) and lysed by sonication in ice-cold sonication buffer (20 mM Tris-HCl, 5 mM EDTA, pH 7.7). Large particles and debris were cleared by low speed centrifugation (200×g, 5 min, 4° C.). Membranes were collected from the supernatant fraction by centrifugation (32,000×g, 18 min, 4° C.), washed with ice-cold hypotonic buffer, and collected again by centrifugation (32,000×g, 18 min, 4° C.). The final membrane pellet was resuspended by sonication into a small volume of ice-cold binding buffer (˜1 ml for every 5 plates: 10 mM NaCl, 20 mM HEPES, 0.22 mM KH2PO4, 1.26 mM CaCl2, 0.81 mM MgSO4, pH 7.4). Protein concentration was measured by the Bradford method (Bradford, 1976) using Bio-Rad Reagent, with bovine serum albumin as a standard. Membranes were held on ice for up to one hour and used fresh, or flash-frozen and stored in liquid nitrogen.
(§3) Membranes were prepared similarly from 293, LM(tk-), and NIH-3T3 cells.
(§4) Membrane suspensions were diluted in binding buffer supplemented with 0.1% bovine serum albumin to yield an optimal membrane protein concentration so that ^125I-PYY (or alternative radioligand such as ^125I-NPY, ^125I-NYY3-36, or ^125I-[Leu^31Pro^34]PYY) bound by membranes in the assay was less than 10% of ^125I-PYY (or alternative radioligand) delivered to the sample (100,000 dpm/sample=0.08 nM for competition binding assays). ^125I-PYY (or alternative radioligand) and peptide competitors were also diluted to desired concentrations in supplemented binding buffer. Individual samples were then prepared in 96-well polypropylene microtiter plates by mixing ^125I-PYY (25 μL) (or alternative radioligand), competing peptides or supplemented binding buffer (25 μL), and finally, membrane suspensions (200 μL). Samples were incubated in a 30° C. water bath with constant shaking for 120 min. Incubations were terminated by filtration over Whatman GF/C filters (pre-coated with 1% polyethyleneimine and air-dried before use), followed by washing with 5 mL of ice-cold binding buffer. Filter-trapped membranes were impregnated with MeltiLex solid scintillant (Wallac, Turku, Finland) and counted for ^125I in a Wallac Beta-Plate Reader. Alternatively, incubations were carried out in GF/C filter plates (pre-coated with 1% polyethyleneimine and air-dried before use), followed by vacuum filtration and three washes of 300 μL of ice-cold binding buffer. 50 μL of UltimaGold (Packard) scintillant were added and counted for ^125I, in a Wallac MicroBeta Trilux. Non-specific binding was defined by 300 nM human NPY for all receptors except the Y4 subtypes; 100 nM human PP was used for the human Y4 and 100 nM rat PP for the rat Y4.

human Y4 receptor = molecular target: T3, human Y4 receptor (Homo sapiens, UniProt P50391); assay: Radioligand binding to membranes, cloned human Y4 receptor; settings: hNPY-4 (one cell for Y1, Y2, Y4), read-out: Ki, nM hNPY-1,2,4
T3 construct: expressed in transfected cells; host or cells: mouse fibroblast LM(tk-) cells, e.g. L-hY4-3 (ATCC CRL-11779)
T3 sequence (P50391 whole entry): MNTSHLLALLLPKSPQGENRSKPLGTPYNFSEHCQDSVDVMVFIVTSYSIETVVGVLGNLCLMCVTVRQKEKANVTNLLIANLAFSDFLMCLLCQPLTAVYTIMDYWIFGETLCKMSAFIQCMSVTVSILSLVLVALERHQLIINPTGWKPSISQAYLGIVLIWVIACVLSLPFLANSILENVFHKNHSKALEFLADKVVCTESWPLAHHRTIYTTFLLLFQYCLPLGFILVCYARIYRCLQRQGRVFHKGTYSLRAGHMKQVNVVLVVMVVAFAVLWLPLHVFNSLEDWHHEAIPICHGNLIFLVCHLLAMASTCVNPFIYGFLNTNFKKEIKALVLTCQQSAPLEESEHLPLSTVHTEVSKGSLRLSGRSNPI
Protocol: as §1, §2, §3, §4

human Y2 receptor = molecular target: T4, human Y2 receptor (Homo sapiens, UniProt P49146); assay: Radioligand binding to membranes, cloned human Y2 receptor
T4 sequence (P49146 1-381): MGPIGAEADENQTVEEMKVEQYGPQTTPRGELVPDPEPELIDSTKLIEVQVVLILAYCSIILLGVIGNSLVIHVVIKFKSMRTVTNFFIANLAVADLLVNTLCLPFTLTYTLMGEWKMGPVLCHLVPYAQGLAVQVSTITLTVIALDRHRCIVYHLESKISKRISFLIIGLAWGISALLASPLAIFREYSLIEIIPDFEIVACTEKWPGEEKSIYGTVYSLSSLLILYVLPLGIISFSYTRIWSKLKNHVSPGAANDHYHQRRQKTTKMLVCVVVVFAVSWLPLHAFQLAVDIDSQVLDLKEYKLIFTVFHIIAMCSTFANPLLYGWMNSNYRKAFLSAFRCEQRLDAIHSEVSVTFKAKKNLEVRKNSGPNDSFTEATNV
Protocol: as §1, §2, §3, §4

[1] = Table 6, read-out: Ki, nM hNPY-5
[2] = Table 5, read-out: Ki, nM hNPY-5
[3] = Table 3, read-out: Ki (nM) hNPY-5

- Ki (human Y5 receptor; [1]): 2.9 nM
- Ki (human Y1 receptor; Table 6): > 10000 nM
- Ki (human Y4 receptor; Table 6): > 10000 nM
- Ki (human Y2 receptor): > 10000 nM
Structure (SMILES): O=S(=O)(NCCCCCCNc1nc2c(s1)CCSc1ccccc1-2)c1cccs1 [Example 106]

- Ki (human Y5 receptor; [1]): 2.6 nM
- Ki (human Y1 receptor; Table 6): > 10000 nM
- Ki (human Y4 receptor; Table 6): > 10000 nM
- Ki (human Y2 receptor): > 10000 nM
Structure (SMILES): O=S(=O)(NCCCCCNc1nc2c(s1)CCSc1ccccc1-2)c1cccs1 [Example 110, N2-[5-(4,5-Dihydrobenzo[2,3]thiepino[4,5-d][1,3]thiazol-2-ylamino)pentyl]-2-thiophenesulfonamide]

- Ki (human Y5 receptor; [1]): 6.1 nM
- Ki (human Y1 receptor; Table 6): > 10000 nM
- Ki (human Y4 receptor; Table 6): > 10000 nM
- Ki (human Y2 receptor): > 10000 nM
Structure (SMILES): CS(=O)(=O)NCCCCCNc1nc2c(s1)CCSc1ccc(F)cc1-2 [Example 159, N-{5-[(9-Fluoro-4,5-dihydrobenzo[2,3]thiepino[4,5-d][1,3]thiazol-2-yl)amino]pentyl}methanesulfonamide]

- Ki (human Y5 receptor; [2]): 21 nM
- Ki (human Y1 receptor; Table 5): > 10000 nM
- Ki (human Y4 receptor; Table 5): > 10000 nM
- Ki (human Y2 receptor): > 10000 nM
Structure (SMILES): O=S(=O)(NCCCCCNc1nc(-c2cccnc2)cs1)c1ccccc1F [Example 70, 2-(5-(2-Fluorophenyl)sulfonylamino)pentylamino-4-(3-pyridyl)thiazole hydrogen chloride]

- Ki (human Y5 receptor; [2]): 891 nM
- Ki (human Y1 receptor; Table 5): > 10000 nM
- Ki (human Y4 receptor; Table 5): > 10000 nM
- Ki (human Y2 receptor): > 10000 nM
Structure (SMILES): COc1ccc(C)cc1S(=O)(=O)NCCCCCNc1nc(-c2cc(-c3ccccc3)on2)cs1 [Example 78]

- Ki (human Y5 receptor; [2]): 50 nM
- Ki (human Y1 receptor; Table 5): > 10000 nM
- Ki (human Y4 receptor; Table 5): > 10000 nM
- Ki (human Y2 receptor): > 10000 nM
Structure (SMILES): COc1ccc(C)cc1S(=O)(=O)NCCCCCNc1nc(-c2cccnc2)cs1 [Example 72, 2-(5-(2-Methoxy-5-methyl)phenylsulfonylamino)pentylamino-4-(3-pyridyl)thiazole hydrogen chloride]

- Ki (human Y1 receptor; Table 5): > 10000 nM
- Ki (human Y4 receptor; Table 5): > 10000 nM
- Ki (human Y2 receptor): > 10000 nM
Structure (SMILES): CCN(CC)S(=O)(=O)NCCCCCNc1nc(-c2ccccn2)cs1 [Example 59, 2-(5-Diethylaminosulfonylamino)pentylamino-4-(2-pyridyl)-thiazole hydrogen chloride]

- Ki (human Y5 receptor; [2]): 745 nM
- Ki (human Y1 receptor; Table 5): > 10000 nM
- Ki (human Y4 receptor; Table 5): > 10000 nM
- Ki (human Y2 receptor): > 10000 nM
Structure (SMILES): Cc1noc(C)c1S(=O)(=O)NCCCCCNc1nc(-c2ccncc2)cs1 [Example 74, 2-(5-(3,5-Dimethylisoxazol-4-yl)sulfonylamino)pentylamino-4-(4-pyridyl)thiazole hydrogen chloride]

- Ki (human Y5 receptor; [1]): 8.2 nM
- Ki (human Y1 receptor; Table 6): > 10000 nM
- Ki (human Y4 receptor; Table 6): > 10000 nM
- Ki (human Y2 receptor): > 10000 nM
Structure (SMILES): Cc1cccc(F)c1S(=O)(=O)NC[C@H]1CC[C@H](Nc2nc3c(s2)CCSc2ccccc2-3)CC1 [Example 158, N1-{[4-(4,5-Dihydrobenzo[2,3]thiepino[4,5-d][1,3]thiazol-2-ylamino)cyclohexyl]methyl}-2-fluoro-6-methyl-1-benzenesulfonamide]

- Ki (human Y5 receptor; [1]): 5.4 nM
Structure (SMILES): COc1ccc(C)cc1S(=O)(=O)NCCCCCCNc1nc2c(s1)CCSc1ccccc1-2 [Example 113, N1-[6-(4,5-Dihydrobenzo[2,3]thiepino[4,5-d][1,3]thiazol-2-ylamino)hexyl]-2-methoxy-5-methyl-1-benzenesulfonamide]

- Ki (human Y5 receptor; Table 4, read-out: Ki (nM) hNPY-5): 94400 nM
Structure (SMILES): CCNc1nc(NCC)nc(NCCCCCn2cccn2)n1 [Example 56, N2,N4-diethyl-N6-[5-(1H-1-pyrazolyl)pentyl]-1,3,5-triazine-2,4,6-triamine]

- Ki (human Y5 receptor; Table 1, read-out: Ki (nM) hNPY-5): 31 nM
Structure (SMILES): CC(=O)N1CCN(c2nc(NCC3CCC(CNS(=O)(=O)c4cccc5ccccc45)CC3)nc(NC(C)C)n2)CC1 (stereo not drawn) [Example 27, N1-{[4-({[4-(4-acetylpiperazino)-6-(isopropylamino)-1,3,5-triazin-2-yl]amino}methyl)cyclohexyl]methyl}-1-naphthalenesulfonamide]

- Ki (human Y5 receptor; [1]): 69 nM
Structure (SMILES): N#Cc1ccccc1S(=O)(=O)NC[C@H]1CC[C@H](Nc2nc3c(s2)CCSc2ccccc2-3)CC1 [Example 154, N1-{[4-(4,5-Dihydrobenzo[2,3]thiepino[4,5-d][1,3]thiazol-2-ylamino)cyclohexyl]methyl}-2-cyano-1-benzenesulfonamide]

- Ki (human Y5 receptor; [3]): 359 nM
Structure (SMILES): CC(C)Nc1nc(NCC2CCC(CNS(=O)(=O)NC3CC3)CC2)nc(NC2CC2)n1 (stereo not drawn) [Example 47, N-cyclopropyl-N′-[4-([4-(cyclopropylamino)-6-(isopropylamino)-1,3,5-triazin-2-yl]aminomethyl)cyclohexyl]methylsulfamide]

- Ki (human Y5 receptor; [2]): 3.2 nM
Structure (SMILES): COc1ccc(C)cc1S(=O)(=O)NC[C@H]1CC[C@H](Nc2nc(-c3nc(C)sc3C)cs2)CC1 [Example 89, trans-N1-[(4-[4-(2,5-Dimethyl-1,3-thiazol-4-yl)-1,3-thiazol-2-yl]aminocyclohexyl)methyl]-2-methoxy-5-methyl-1-benzenesulfonamide]

- Ki (human Y5 receptor; [1]): 4.1 nM
Structure (SMILES): O=S(=O)(NCCCCCCNc1nc2c(s1)CCSc1ccccc1-2)c1ccc(F)cc1F [Example 145, N1-[6-(4,5-Dihydrobenzo[2,3]thiepino[4,5-d][1,3]thiazol-2-ylamino)hexyl]-2,4-difluoro-1-benzenesulfonamide]

- Ki (human Y5 receptor; [1]): 7.4 nM
Structure (SMILES): CS(=O)(=O)NCCCCCCNc1nc2c(s1)CCSc1ccccc1-2 [Example 103, N-[6-(4,5-Dihydrobenzo[2,3]thiepino[4,5-d][1,3]thiazol-2-ylamino)hexyl]methanesulfonamide]

- Ki (human Y5 receptor; [2]): 45 nM
Structure (SMILES): O=S(=O)(Cc1ccccc1)NCCCCCNc1nc(-c2ccccn2)cs1 [Example 66, 2-(5-(Benzylsulfonylamino)pentylamino-4-(2-pyridyl)thiazole hydrogen chloride]

- Ki (human Y5 receptor; [1]): 18.4 nM
Structure (SMILES): O=S(=O)(NC[C@H]1CC[C@H](Nc2nc3c(s2)CCSc2ccccc2-3)CC1)c1cccc2ccccc12 [Example 121, N1-{[4-(4,5-Dihydrobenzo[2,3]thiepino[4,5-d][1,3]thiazol-2-ylamino)cyclohexyl]methyl}-1-naphthalenesulfonamide]

- Ki (human Y5 receptor; [1]): 110 nM
Structure (SMILES): Cc1cccc(F)c1S(=O)(=O)NCCCCNc1nc2c(s1)CCSc1ccccc1-2 [Example 135, N1-[4-(4,5-dihydrobenzo[2,3]thiepino[4,5-d][1,3]thiazol-2-ylamino)butyl]-2-fluoro-6-methyl-1-benzenesulfonamide]

- Ki (human Y5 receptor; [3]): 209 nM
Structure (SMILES): O=S(=O)(NCC1CCC(CNc2nc(NC3CC3)nc(-c3ccccn3)n2)CC1)c1ccc(F)cc1 (stereo not drawn) [Example 55, N1-[4-([4-(cyclopropylamino)-6-(2-pyridyl)-1,3,5-triazin-2-yl]aminomethyl)cyclohexyl]methyl-4-fluoro-1-benzenesulfonamide]

- Ki (human Y5 receptor; [1]): 17.2 nM
Structure (SMILES): O=S(=O)(NCCCCCNc1nc2c(s1)CCSc1ccccc1-2)c1cccc2ccccc12 [Example 127, N1-[5-(4,5-Dihydrobenzo[2,3]thiepino[4,5-d][1,3]thiazol-2-ylamino)pentyl]-1-naphthalenesulfonamide]

- Ki (human Y5 receptor; [1]): 4 nM
Structure (SMILES): Cc1cccc(F)c1S(=O)(=O)NCCCCCCNc1nc2c(s1)CCSc1ccccc1-2 [Example 149, N1-[6-(4,5-Dihydrobenzo[2,3]thiepino[4,5-d][1,3]thiazol-2-ylamino)hexyl]-2-fluoro-6-methyl-1-benzenesulfonamide]

- Ki (human Y5 receptor; [1]): 7.9 nM
Structure (SMILES): COc1cccc(Br)c1S(=O)(=O)NCCCCCCNc1nc2c(s1)CCSc1ccccc1-2 [Example 147, N1-[6-(4,5-Dihydrobenzo[2,3]thiepino[4,5-d][1,3]thiazol-2-ylamino)hexyl]-2-bromo-6-methoxy-1-benzenesulfonamide]

- Ki (human Y5 receptor; [3]): 3510 nM
Structure (SMILES): CN(C)S(=O)(=O)NCC1CCC(CNc2nc(N3CCOCC3)nc(N3CCOCC3)n2)CC1 (stereo not drawn) [Example 50, N′-[(4-[(4,6-dimorpholino-1,3,5-triazin-2-yl)amino]methylcyclohexyl)methyl]-N,N-dimethylsulfamide]
